# Test results published in PubChem BioAssay AID1745844 (Carcinogenic Potency Database (CPDB), 2022).
# Several values for one entry are separate records, joined by “and”; a condition that tells them apart may be missing. Equal entries are not always repeated. Activity calls are given as the source filed them. The rule behind the calls is not given here.
# System: rodent lifetime carcinogenesis bioassay, tumor incidence TD50
# Assay: carcinogenic potency in animals, long-term in vivo studies, CPDB compilation (AID 1745844)
compound,measurement,setting,value
OCc1ccco1,carcinogen call,"mouse, strain B6C3F1, females, inhaled, site: any site (literature study), lesion: several types, types named in the paper, dosed 104 weeks, study length 104 weeks",negative (inactive)
same,TD50,"mouse, strain B6C3F1, females, inhaled, site: lung, lesion: alveolar/bronchiolar adenoma + alveolar/bronchiolar carcinoma, dosed 104 weeks, study length 104 weeks",41.8 mg/kg/day
same,TD50,"mouse, strain B6C3F1, males, inhaled, site: kidney, lesion: tubule adenoma + tubule carcinoma, dosed 104 weeks, study length 104 weeks",263 mg/kg/day and 291 mg/kg/day
same,TD50,"mouse, strain B6C3F1, males, inhaled, site: kidney, lesion: tubule adenoma, dosed 104 weeks, study length 104 weeks",538 mg/kg/day and 492 mg/kg/day
same,TD50,"mouse, strain B6C3F1, males, inhaled, site: kidney, lesion: tubule carcinoma, dosed 104 weeks, study length 104 weeks",538 mg/kg/day and 744 mg/kg/day
same,TD50,"rat, strain Fischer 344, females, inhaled, site: all sites, lesion: mononuclear-cell leukemia, dosed 105 weeks, study length 105 weeks",10.1 mg/kg/day
same,TD50,"rat, strain Fischer 344, females, inhaled, site: any site (literature study), lesion: several types, types named in the paper, dosed 105 weeks, study length 105 weeks",7.57 mg/kg/day
same,TD50,"rat, strain Fischer 344, females, inhaled, site: clitoral gland, lesion: adenoma + adenoma, bilateral + carcinoma + carcinoma, bilateral, dosed 105 weeks, study length 105 weeks",27.8 mg/kg/day
same,TD50,"rat, strain Fischer 344, females, inhaled, site: clitoral gland, lesion: adenoma + adenoma, bilateral, dosed 105 weeks, study length 105 weeks",35.7 mg/kg/day
same,TD50,"rat, strain Fischer 344, females, inhaled, site: kidney, lesion: tubule adenoma + tubule carcinoma, dosed 105 weeks, study length 105 weeks",110 mg/kg/day and 161 mg/kg/day
same,TD50,"rat, strain Fischer 344, females, inhaled, site: kidney, lesion: tubule adenoma, dosed 105 weeks, study length 105 weeks",113 mg/kg/day and 108 mg/kg/day
same,carcinogen call,"rat, strain Fischer 344, females, inhaled, site: nasal cavity, respiratory epithelium, lateral wall, lesion: adenoma, dosed 105 weeks, study length 105 weeks",e
same,TD50,"rat, strain Fischer 344, females, inhaled, site: nasal cavity, respiratory epithelium, lesion: adenoma, dosed 105 weeks, study length 105 weeks",161 mg/kg/day
same,TD50,"rat, strain Fischer 344, males, inhaled, site: Zymbal's gland, lesion: adenoma + carcinoma, dosed 102 weeks, study length 105 weeks",17.4 mg/kg/day
same,TD50,"rat, strain Fischer 344, males, inhaled, site: any site (literature study), lesion: several types, types named in the paper, dosed 102 weeks, study length 105 weeks",1.46 mg/kg/day
same,TD50,"rat, strain Fischer 344, males, inhaled, site: nasal cavity, respiratory epithelium, lateral wall + nasal cavity, respiratory epithelium, lesion: adenoma + carcinoma + squamous-cell carcinoma, dosed 102 weeks, study length 105 weeks",9.6 mg/kg/day
same,TD50,"rat, strain Fischer 344, males, inhaled, site: nasal cavity, respiratory epithelium, lesion: squamous-cell carcinoma, dosed 102 weeks, study length 105 weeks",46.4 mg/kg/day
S=C=NCCCc1ccccc1,TD50,"rat, strain Fischer 344, males, in feed, site: testis, lesion: interstitial-cell tumor, dosed 89 weeks, study length 89 weeks",4.34 mg/kg/day
NC(=O)OCC(COC(N)=O)c1ccccc1,TD50,"mouse, strain Charles River CD1, females, in feed, site: liver, lesion: hepatocellular adenoma, dosed 92 weeks, study length 92 weeks",10400 mg/kg/day
same,TD50,"mouse, strain Charles River CD1, females, in feed, site: liver, lesion: several types, types named in the paper, dosed 92 weeks, study length 92 weeks",10200 mg/kg/day
same,TD50,"mouse, strain Charles River CD1, males, in feed, site: liver, lesion: hepatocellular adenoma, dosed 92 weeks, study length 92 weeks",5770 mg/kg/day
same,TD50,"rat, strain Charles River CD (Sprague-Dawley), females, in feed, site: liver, lesion: hepatocellular adenoma, dosed 104 weeks, study length 104 weeks",934 mg/kg/day
same,carcinogen call,"rat, strain Charles River CD (Sprague-Dawley), females, in feed, site: liver, lesion: one or several types, types not named, dosed 52 weeks, study length 52 weeks",negative (inactive)
same,carcinogen call,"rat, strain Charles River CD (Sprague-Dawley), males, in feed, site: liver, lesion: one or several types, types not named, dosed 52 weeks, study length 52 weeks",negative (inactive)
same,TD50,"rat, strain Charles River CD (Sprague-Dawley), males, in feed, site: liver, lesion: several types, types named in the paper, dosed 104 weeks, study length 104 weeks",9780 mg/kg/day
same,TD50,"rat, strain Charles River CD (Sprague-Dawley), males, in feed, site: testis, lesion: interstitial-cell tumor, dosed 104 weeks, study length 104 weeks",1310 mg/kg/day
O=CNNC=O,TD50,"mouse, strain Swiss albino, females, in drinking water, site: liver, lesion: hepatoma, dosed 83 weeks, study length 83 weeks",7820 mg/kg/day (inactive)
same,TD50,"mouse, strain Swiss albino, females, in drinking water, site: liver, lesion: several types, types named in the paper, dosed 83 weeks, study length 83 weeks",89200 mg/kg/day
same,TD50,"mouse, strain Swiss albino, females, in drinking water, site: lung, lesion: adenocarcinoma, dosed 83 weeks, study length 83 weeks",2170 mg/kg/day
same,TD50,"mouse, strain Swiss albino, females, in drinking water, site: lung, lesion: adenoma, dosed 83 weeks, study length 83 weeks",561 mg/kg/day
same,TD50,"mouse, strain Swiss albino, females, in drinking water, site: lung, lesion: several types, types named in the paper, dosed 83 weeks, study length 83 weeks",571 mg/kg/day
same,TD50,"mouse, strain Swiss albino, males, in drinking water, site: liver, lesion: hepatoma, dosed 83 weeks, study length 83 weeks",11300 mg/kg/day (inactive)
same,TD50,"mouse, strain Swiss albino, males, in drinking water, site: liver, lesion: several types, types named in the paper, dosed 83 weeks, study length 83 weeks",8140 mg/kg/day
same,TD50,"mouse, strain Swiss albino, males, in drinking water, site: lung, lesion: adenocarcinoma, dosed 83 weeks, study length 83 weeks",4530 mg/kg/day
same,TD50,"mouse, strain Swiss albino, males, in drinking water, site: lung, lesion: adenoma, dosed 83 weeks, study length 83 weeks",779 mg/kg/day
same,TD50,"mouse, strain Swiss albino, males, in drinking water, site: lung, lesion: several types, types named in the paper, dosed 83 weeks, study length 83 weeks",806 mg/kg/day
ClC(Cl)(Cl)C(Cl)(Cl)Cl,TD50,"mouse, strain B6C3F1, females, by gavage, site: any site (literature study), lesion: several types, types named in the paper, dosed 78 weeks, study length 90 weeks",1190 mg/kg/day
same,TD50,"mouse, strain B6C3F1, females, by gavage, site: liver, lesion: hepatocellular adenoma + hepatocellular carcinoma + neoplastic nodule, dosed 78 weeks, study length 90 weeks",873 mg/kg/day
same,TD50,"mouse, strain B6C3F1, females, by gavage, site: liver, lesion: hepatocellular carcinoma, dosed 78 weeks, study length 90 weeks",873 mg/kg/day and 319 mg/kg/day
same,TD50,"mouse, strain B6C3F1, females, by gavage, site: lung, lesion: alveolar/bronchiolar adenoma + alveolar/bronchiolar carcinoma, dosed 78 weeks, study length 90 weeks",6950 mg/kg/day
same,TD50,"mouse, strain B6C3F1, males, by gavage, site: any site (literature study), lesion: several types, types named in the paper, dosed 78 weeks, study length 90 weeks",675 mg/kg/day
same,TD50,"mouse, strain B6C3F1, males, by gavage, site: liver, lesion: hepatocellular adenoma + hepatocellular carcinoma + neoplastic nodule, dosed 78 weeks, study length 90 weeks",585 mg/kg/day
same,TD50,"mouse, strain B6C3F1, males, by gavage, site: liver, lesion: hepatocellular carcinoma, dosed 78 weeks, study length 90 weeks",585 mg/kg/day and 359 mg/kg/day
same,TD50,"mouse, strain B6C3F1, males, by gavage, site: lung, lesion: alveolar/bronchiolar adenoma + alveolar/bronchiolar carcinoma, dosed 78 weeks, study length 90 weeks",23600 mg/kg/day
same,carcinogen call,"rat, strain Fischer 344, females, by gavage, site: any site (literature study), lesion: several types, types named in the paper, dosed 103 weeks, study length 105 weeks",negative (inactive)
same,TD50,"rat, strain Fischer 344, females, by gavage, site: liver, lesion: hepatocellular adenoma + hepatocellular carcinoma + neoplastic nodule, dosed 103 weeks, study length 105 weeks",276000 mg/kg/day
same,TD50,"rat, strain Fischer 344, males, by gavage, site: adrenal gland + adrenal medulla, lesion: pheochromocytoma, benign + pheochromocytoma benign, bilateral + pheochromocytoma, complex + pheochromocytoma, malignant, dosed 103 weeks, study length 105 weeks",8.02 mg/kg/day
same,TD50,"rat, strain Fischer 344, males, by gavage, site: adrenal gland + adrenal medulla, lesion: pheochromocytoma, benign + pheochromocytoma benign, bilateral, dosed 103 weeks, study length 105 weeks",9.05 mg/kg/day
same,TD50,"rat, strain Fischer 344, males, by gavage, site: any site (literature study), lesion: several types, types named in the paper, dosed 103 weeks, study length 105 weeks",28 mg/kg/day
same,TD50,"rat, strain Fischer 344, males, by gavage, site: kidney, lesion: adenoma + tubule adenoma + tubule carcinoma, dosed 103 weeks, study length 105 weeks",55.4 mg/kg/day
same,TD50,"rat, strain Fischer 344, males, by gavage, site: kidney, lesion: tubule carcinoma, dosed 103 weeks, study length 105 weeks",159 mg/kg/day
same,TD50,"rat, strain Fischer 344, males, by gavage, site: liver, lesion: hepatocellular adenoma + hepatocellular carcinoma + neoplastic nodule, dosed 103 weeks, study length 105 weeks",1340 mg/kg/day
same,carcinogen call,"rat, strain Osborne-Mendel, females, by gavage, site: any site (literature study), lesion: several types, types named in the paper, dosed 78 weeks, study length 111 weeks",negative (inactive)
same,carcinogen call,"rat, strain Osborne-Mendel, males, by gavage, site: any site (literature study), lesion: several types, types named in the paper, dosed 78 weeks, study length 111 weeks",negative (inactive)
Oc1ccc2ccccc2c1N=Nc1ccccc1,TD50,"mouse, strain B6C3F1, females, in feed, site: all sites, lesion: lymphoma, dosed 103 weeks, study length 105 weeks",128 mg/kg/day (inactive)
same,TD50,"mouse, strain B6C3F1, females, in feed, site: any site (literature study), lesion: several types, types named in the paper, dosed 103 weeks, study length 105 weeks",391 mg/kg/day
same,TD50,"mouse, strain B6C3F1, females, in feed, site: liver, lesion: hepatocellular adenoma + hepatocellular carcinoma + neoplastic nodule, dosed 103 weeks, study length 105 weeks",833 mg/kg/day
same,TD50,"mouse, strain B6C3F1, females, in feed, site: lung, lesion: alveolar/bronchiolar adenoma + alveolar/bronchiolar carcinoma, dosed 103 weeks, study length 105 weeks",3030 mg/kg/day
same,TD50,"mouse, strain B6C3F1, males, in feed, site: any site (literature study), lesion: several types, types named in the paper, dosed 103 weeks, study length 105 weeks",154 mg/kg/day (inactive)
same,TD50,"mouse, strain B6C3F1, males, in feed, site: liver, lesion: hepatocellular adenoma + hepatocellular carcinoma + neoplastic nodule, dosed 103 weeks, study length 105 weeks",587 mg/kg/day
same,TD50,"mouse, strain B6C3F1, males, in feed, site: lung, lesion: alveolar/bronchiolar adenoma + alveolar/bronchiolar carcinoma, dosed 103 weeks, study length 105 weeks",1080 mg/kg/day
same,carcinogen call,"mouse, strain CBA, females, in feed, site: liver, lesion: hepatoma, dosed 52 weeks, study length 104 weeks",negative (inactive)
same,carcinogen call,"mouse, strain CBA, males, in feed, site: liver, lesion: hepatoma, dosed 52 weeks, study length 104 weeks",negative (inactive)
same,TD50,"rat, strain Fischer 344, females, in feed, site: liver, lesion: hepatocellular adenoma + hepatocellular carcinoma + neoplastic nodule, dosed 103 weeks, study length 104 weeks",86.5 mg/kg/day
same,TD50,"rat, strain Fischer 344, females, in feed, site: liver, lesion: hepatocellular carcinoma + neoplastic nodule, dosed 103 weeks, study length 104 weeks",86.5 mg/kg/day
same,TD50,"rat, strain Fischer 344, females, in feed, site: liver, lesion: neoplastic nodule, dosed 103 weeks, study length 104 weeks",96.6 mg/kg/day
same,TD50,"rat, strain Fischer 344, females, in feed, site: subcutaneous tissue, lesion: fibroma, dosed 103 weeks, study length 104 weeks",346 mg/kg/day
same,TD50,"rat, strain Fischer 344, males, in feed, site: any site (literature study), lesion: several types, types named in the paper, dosed 103 weeks, study length 104 weeks",106 mg/kg/day
same,TD50,"rat, strain Fischer 344, males, in feed, site: liver, lesion: hepatocellular adenoma + hepatocellular carcinoma + neoplastic nodule, dosed 103 weeks, study length 104 weeks",17.9 mg/kg/day
same,TD50,"rat, strain Fischer 344, males, in feed, site: liver, lesion: hepatocellular carcinoma + neoplastic nodule, dosed 103 weeks, study length 104 weeks",17.9 mg/kg/day
same,TD50,"rat, strain Fischer 344, males, in feed, site: liver, lesion: neoplastic nodule, dosed 103 weeks, study length 104 weeks",17.7 mg/kg/day
C[C@@H]1C\C=C/C=C/C=C/C=C/[C@H](O[C@@H]2O[C@H](C)[C@@H](O)[C@H](N)[C@@H]2O)C[C@@H]2O[C@](O)(C[C@@H](O)C[C@@H]3O[C@@H]3/C=C\C(=O)O1)C[C@H](O)[C@H]2C(=O)O,carcinogen call,"rat, strain CFN, females, in feed, site: liver, lesion: malignant hepatoma, dosed 105 weeks, study length 105 weeks",negative (inactive)
same,TD50,"rat, strain CFN, males, in feed, site: lung, lesion: lymphosarcoma, dosed 105 weeks, study length 105 weeks",1970 mg/kg/day (inactive)
same,carcinogen call,"rat, strain CFN, males, in feed, site: thymus gland, lesion: thymoma, dosed 105 weeks, study length 105 weeks",negative (inactive)
